From ChEMBL document CHEMBL2385042, “Diterpenoids with diverse skeletons from the roots of Euphorbia micractina” (J Nat Prod, 2013)
Calls of active or inactive are those of the source. No cut-off for these calls is given here.

System: MCF7
Test: Cytotoxicity against human MCF7 cells assessed as cell viability at 10 uM after 96 hrs by MTT assay
Format: functional, cell-based
Details: not given

SMILES	Activity
CO[C@@H]1[C@@H]2[C@H](CC[C@@]3(C)[C@H](O)[C@H]4[C@@H](OC(=O)/C=C/c5ccccc5)[C@@H](C)C[C@]4(O)C(=O)[C@@]13C)C2(C)C	inactive
CO[C@@H]1[C@@H]2[C@H](CC[C@@]3(C)[C@H](O)[C@H]4[C@@H](O)[C@@H](C)C[C@]4(OC(=O)c4ccccc4)C(=O)[C@@]13C)C2(C)C	inactive
C[C@H]1C[C@]2(O)C(=O)[C@@]3(C)[C@@H]4O[C@H]4C(C)(C)[C@@H](O)CC[C@@]3(C)[C@H](O)[C@H]2[C@H]1OC(=O)/C=C/c1ccccc1	inactive
CCO[C@@H]1[C@@H]2[C@H](CC[C@@]3(C)[C@H](O)[C@H]4[C@@H](OC(=O)c5ccccc5)[C@@H](C)C[C@]4(O)C(=O)[C@@]13C)C2(C)C	inactive
C[C@H]1C[C@]2(O)C(=O)[C@@]3(C)[C@@H]4O[C@H]4C(C)(C)[C@@H](O)CC[C@@]3(C)[C@H](O)[C@H]2[C@H]1OC(=O)c1ccccc1	inactive

System: KETR3
Test: Cytotoxicity against human Ketr3 cells assessed as cell viability at 10 uM after 96 hrs by MTT assay
Format: functional, cell-based
Details: not given

SMILES	Activity
CO[C@@H]1[C@@H]2[C@H](CC[C@@]3(C)[C@H](O)[C@H]4[C@@H](OC(=O)/C=C/c5ccccc5)[C@@H](C)C[C@]4(O)C(=O)[C@@]13C)C2(C)C	inactive
CO[C@@H]1[C@@H]2[C@H](CC[C@@]3(C)[C@H](O)[C@H]4[C@@H](O)[C@@H](C)C[C@]4(OC(=O)c4ccccc4)C(=O)[C@@]13C)C2(C)C	inactive
C[C@H]1C[C@]2(O)C(=O)[C@@]3(C)[C@@H]4O[C@H]4C(C)(C)[C@@H](O)CC[C@@]3(C)[C@H](O)[C@H]2[C@H]1OC(=O)/C=C/c1ccccc1	inactive
CCO[C@@H]1[C@@H]2[C@H](CC[C@@]3(C)[C@H](O)[C@H]4[C@@H](OC(=O)c5ccccc5)[C@@H](C)C[C@]4(O)C(=O)[C@@]13C)C2(C)C	inactive
C[C@H]1C[C@]2(O)C(=O)[C@@]3(C)[C@@H]4O[C@H]4C(C)(C)[C@@H](O)CC[C@@]3(C)[C@H](O)[C@H]2[C@H]1OC(=O)c1ccccc1	inactive

System: BGC-823
Test: Cytotoxicity against human BGC823 cells assessed as cell viability at 10 uM after 96 hrs by MTT assay
Format: functional, cell-based
Details: not given

SMILES	Activity
CO[C@@H]1[C@@H]2[C@H](CC[C@@]3(C)[C@H](O)[C@H]4[C@@H](OC(=O)/C=C/c5ccccc5)[C@@H](C)C[C@]4(O)C(=O)[C@@]13C)C2(C)C	inactive
CO[C@@H]1[C@@H]2[C@H](CC[C@@]3(C)[C@H](O)[C@H]4[C@@H](O)[C@@H](C)C[C@]4(OC(=O)c4ccccc4)C(=O)[C@@]13C)C2(C)C	inactive
C[C@H]1C[C@]2(O)C(=O)[C@@]3(C)[C@@H]4O[C@H]4C(C)(C)[C@@H](O)CC[C@@]3(C)[C@H](O)[C@H]2[C@H]1OC(=O)/C=C/c1ccccc1	inactive
CCO[C@@H]1[C@@H]2[C@H](CC[C@@]3(C)[C@H](O)[C@H]4[C@@H](OC(=O)c5ccccc5)[C@@H](C)C[C@]4(O)C(=O)[C@@]13C)C2(C)C	inactive
C[C@H]1C[C@]2(O)C(=O)[C@@]3(C)[C@@H]4O[C@H]4C(C)(C)[C@@H](O)CC[C@@]3(C)[C@H](O)[C@H]2[C@H]1OC(=O)c1ccccc1	inactive

Target: T1, Tyrosine-protein phosphatase non-receptor type 1 (Homo sapiens) (UniProt P18031)
T1 sequence (whole entry): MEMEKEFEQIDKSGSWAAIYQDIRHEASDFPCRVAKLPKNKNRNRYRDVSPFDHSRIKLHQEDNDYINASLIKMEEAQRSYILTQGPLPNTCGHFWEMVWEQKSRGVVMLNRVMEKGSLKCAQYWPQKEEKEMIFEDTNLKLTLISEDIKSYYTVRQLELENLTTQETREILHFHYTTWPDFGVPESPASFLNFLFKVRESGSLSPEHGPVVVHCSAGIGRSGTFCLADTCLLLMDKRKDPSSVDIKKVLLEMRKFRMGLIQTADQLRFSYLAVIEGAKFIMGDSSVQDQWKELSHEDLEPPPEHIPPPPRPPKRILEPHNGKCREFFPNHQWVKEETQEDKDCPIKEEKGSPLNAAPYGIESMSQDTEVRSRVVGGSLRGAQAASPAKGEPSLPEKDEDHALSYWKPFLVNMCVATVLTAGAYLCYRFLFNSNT
Test: Inhibition of human recombinant GST-tagged PTP1B using para-nitrophenyl phosphate as substrate assessed as release of para-nitrophenol at 10 uM after 10 mins by spectrophotometric analysis
Details: not given

SMILES	inhibition
C[C@H]1C[C@]2(O)C(=O)[C@@]3(C)[C@@H]4O[C@H]4C(C)(C)[C@@H](O)CC[C@@]3(C)[C@H](O)[C@H]2[C@H]1OC(=O)/C=C/c1ccccc1	inactive
C[C@H]1C[C@]2(O)C(=O)[C@@]3(C)[C@@H]4O[C@H]4C(C)(C)[C@@H](O)CC[C@@]3(C)[C@H](O)[C@H]2[C@H]1OC(=O)c1ccccc1	inactive

Now from value to compound:

inhibition	SMILES
inactive	CO[C@@H]1[C@@H]2[C@H](CC[C@@]3(C)[C@H](O)[C@H]4[C@@H](OC(=O)/C=C/c5ccccc5)[C@@H](C)C[C@]4(O)C(=O)[C@@]13C)C2(C)C
inactive	CO[C@@H]1[C@@H]2[C@H](CC[C@@]3(C)[C@H](O)[C@H]4[C@@H](O)[C@@H](C)C[C@]4(OC(=O)c4ccccc4)C(=O)[C@@]13C)C2(C)C
inactive	CCO[C@@H]1[C@@H]2[C@H](CC[C@@]3(C)[C@H](O)[C@H]4[C@@H](OC(=O)c5ccccc5)[C@@H](C)C[C@]4(O)C(=O)[C@@]13C)C2(C)C

System: A549
Test: Cytotoxicity against human A549 cells assessed as cell viability at 10 uM after 96 hrs by MTT assay
Format: functional, cell-based
Details: not given

SMILES	Activity
CO[C@@H]1[C@@H]2[C@H](CC[C@@]3(C)[C@H](O)[C@H]4[C@@H](OC(=O)/C=C/c5ccccc5)[C@@H](C)C[C@]4(O)C(=O)[C@@]13C)C2(C)C	inactive
CO[C@@H]1[C@@H]2[C@H](CC[C@@]3(C)[C@H](O)[C@H]4[C@@H](O)[C@@H](C)C[C@]4(OC(=O)c4ccccc4)C(=O)[C@@]13C)C2(C)C	inactive
C[C@H]1C[C@]2(O)C(=O)[C@@]3(C)[C@@H]4O[C@H]4C(C)(C)[C@@H](O)CC[C@@]3(C)[C@H](O)[C@H]2[C@H]1OC(=O)/C=C/c1ccccc1	inactive
CCO[C@@H]1[C@@H]2[C@H](CC[C@@]3(C)[C@H](O)[C@H]4[C@@H](OC(=O)c5ccccc5)[C@@H](C)C[C@]4(O)C(=O)[C@@]13C)C2(C)C	inactive
C[C@H]1C[C@]2(O)C(=O)[C@@]3(C)[C@@H]4O[C@H]4C(C)(C)[C@@H](O)CC[C@@]3(C)[C@H](O)[C@H]2[C@H]1OC(=O)c1ccccc1	inactive

System: Human immunodeficiency virus 1
Test: Antiviral activity against HIV1 infected in human 293T cells assessed as inhibition of viral replication at 10 uM incubated for 15 mins prior to infection measured after 48 hrs by luciferase reporter gene assay
Format: functional, organism-based
Details: not given

SMILES	Activity
CO[C@@H]1[C@@H]2[C@H](CC[C@@]3(C)[C@H](O)[C@H]4[C@@H](OC(=O)/C=C/c5ccccc5)[C@@H](C)C[C@]4(O)C(=O)[C@@]13C)C2(C)C	inactive
CO[C@@H]1[C@@H]2[C@H](CC[C@@]3(C)[C@H](O)[C@H]4[C@@H](O)[C@@H](C)C[C@]4(OC(=O)c4ccccc4)C(=O)[C@@]13C)C2(C)C	inactive
C[C@H]1C[C@]2(O)C(=O)[C@@]3(C)[C@@H]4O[C@H]4C(C)(C)[C@@H](O)CC[C@@]3(C)[C@H](O)[C@H]2[C@H]1OC(=O)/C=C/c1ccccc1	inactive
CCO[C@@H]1[C@@H]2[C@H](CC[C@@]3(C)[C@H](O)[C@H]4[C@@H](OC(=O)c5ccccc5)[C@@H](C)C[C@]4(O)C(=O)[C@@]13C)C2(C)C	inactive
C[C@H]1C[C@]2(O)C(=O)[C@@]3(C)[C@@H]4O[C@H]4C(C)(C)[C@@H](O)CC[C@@]3(C)[C@H](O)[C@H]2[C@H]1OC(=O)c1ccccc1	inactive

System: HCT-8
Test: Cytotoxicity against human HCT8 cells assessed as cell viability at 10 uM after 96 hrs by MTT assay
Format: functional, cell-based
Details: not given

SMILES	Activity
CO[C@@H]1[C@@H]2[C@H](CC[C@@]3(C)[C@H](O)[C@H]4[C@@H](OC(=O)/C=C/c5ccccc5)[C@@H](C)C[C@]4(O)C(=O)[C@@]13C)C2(C)C	inactive
CO[C@@H]1[C@@H]2[C@H](CC[C@@]3(C)[C@H](O)[C@H]4[C@@H](O)[C@@H](C)C[C@]4(OC(=O)c4ccccc4)C(=O)[C@@]13C)C2(C)C	inactive
C[C@H]1C[C@]2(O)C(=O)[C@@]3(C)[C@@H]4O[C@H]4C(C)(C)[C@@H](O)CC[C@@]3(C)[C@H](O)[C@H]2[C@H]1OC(=O)/C=C/c1ccccc1	inactive
CCO[C@@H]1[C@@H]2[C@H](CC[C@@]3(C)[C@H](O)[C@H]4[C@@H](OC(=O)c5ccccc5)[C@@H](C)C[C@]4(O)C(=O)[C@@]13C)C2(C)C	inactive
C[C@H]1C[C@]2(O)C(=O)[C@@]3(C)[C@@H]4O[C@H]4C(C)(C)[C@@H](O)CC[C@@]3(C)[C@H](O)[C@H]2[C@H]1OC(=O)c1ccccc1	inactive

System: Human immunodeficiency virus 1
Test: Antiviral activity against HIV1 infected in human 293T cells assessed as inhibition of viral replication incubated for 15 mins prior to infection measured after 48 hrs by luciferase reporter gene assay
Format: functional, organism-based
Details: Human immunodeficiency virus 1, HEK-293T

IC50 [nM]	SMILES
60	O=C1Nc2ccc(Cl)cc2[C@@](C#CC2CC2)(C(F)(F)F)O1 [EFAVIRENZ]

System: Bel-7402
Test: Cytotoxicity against human Bel7402 cells assessed as cell viability at 10 uM after 96 hrs by MTT assay
Format: functional, cell-based
Details: not given

SMILES	Activity
CO[C@@H]1[C@@H]2[C@H](CC[C@@]3(C)[C@H](O)[C@H]4[C@@H](OC(=O)/C=C/c5ccccc5)[C@@H](C)C[C@]4(O)C(=O)[C@@]13C)C2(C)C	inactive
CO[C@@H]1[C@@H]2[C@H](CC[C@@]3(C)[C@H](O)[C@H]4[C@@H](O)[C@@H](C)C[C@]4(OC(=O)c4ccccc4)C(=O)[C@@]13C)C2(C)C	inactive
C[C@H]1C[C@]2(O)C(=O)[C@@]3(C)[C@@H]4O[C@H]4C(C)(C)[C@@H](O)CC[C@@]3(C)[C@H](O)[C@H]2[C@H]1OC(=O)/C=C/c1ccccc1	inactive
CCO[C@@H]1[C@@H]2[C@H](CC[C@@]3(C)[C@H](O)[C@H]4[C@@H](OC(=O)c5ccccc5)[C@@H](C)C[C@]4(O)C(=O)[C@@]13C)C2(C)C	inactive
C[C@H]1C[C@]2(O)C(=O)[C@@]3(C)[C@@H]4O[C@H]4C(C)(C)[C@@H](O)CC[C@@]3(C)[C@H](O)[C@H]2[C@H]1OC(=O)c1ccccc1	inactive
